According to publication PMC11020753, “Contribution of amino acids in the active site of dipeptidyl peptidase 4 to the catalytic action of the enzyme” (PLOS ONE, 2024):
Like-named read-outs stand apart in the source and are kept apart here. Non-standard residues stand in square brackets, D forms with d. Residues, ends and D or L forms follow the SMILES beside them. *: point of attachment. AMC = Cc1cc(=O)oc2cc(N*)ccc12; Tle = CC(C)(C)[C@H](N)C(=O)O

Tests used:
Type in all cases: biochemical
DP4 variant N710D [1] = molecular target: T1, DP4 variant N710D (Homo sapiens, UniProt P27487, N710D); assay: Hydrolysis of dipeptide-AMC substrates (fluorescence); conditions: substrate hydrolysis, 100 mM HEPES-buffer (pH 7.6), T = 30 °C
T1 construct: His(6)-37-766 hDP4 containing fractions were concentrated to 1 ml; made in house; host or cells: Pichia pastoris X-33 (vector pPICZα C, secreted)
T1 sequence (P27487 37-766 N710D): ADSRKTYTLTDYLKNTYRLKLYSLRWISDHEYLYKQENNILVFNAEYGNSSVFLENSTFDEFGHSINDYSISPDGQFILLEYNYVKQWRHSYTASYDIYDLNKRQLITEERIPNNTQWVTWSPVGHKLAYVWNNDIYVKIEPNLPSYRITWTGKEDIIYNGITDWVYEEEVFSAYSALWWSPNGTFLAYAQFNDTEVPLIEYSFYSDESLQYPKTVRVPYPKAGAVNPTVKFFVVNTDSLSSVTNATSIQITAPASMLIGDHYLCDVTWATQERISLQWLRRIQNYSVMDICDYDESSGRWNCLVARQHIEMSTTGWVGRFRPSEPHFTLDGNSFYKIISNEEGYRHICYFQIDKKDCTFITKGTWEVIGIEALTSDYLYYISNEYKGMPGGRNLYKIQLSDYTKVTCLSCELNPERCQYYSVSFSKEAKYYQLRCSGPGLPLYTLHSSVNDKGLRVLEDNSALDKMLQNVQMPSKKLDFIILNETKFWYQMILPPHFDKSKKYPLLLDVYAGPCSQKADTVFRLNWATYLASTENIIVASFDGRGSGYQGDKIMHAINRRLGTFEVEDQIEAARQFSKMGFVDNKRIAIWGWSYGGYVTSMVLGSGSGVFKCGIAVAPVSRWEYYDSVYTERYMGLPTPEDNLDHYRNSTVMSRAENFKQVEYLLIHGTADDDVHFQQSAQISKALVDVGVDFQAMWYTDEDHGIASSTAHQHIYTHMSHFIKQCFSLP

DP4 variant E205A [2] = molecular target: T2, DP4 variant E205A (Homo sapiens, UniProt P27487, E205A); assay: as above; conditions: substrate hydrolysis, 100 mM HEPES-buffer (pH 7.6), T = 30 °C
T2 construct: His(6)-37-766 hDP4 containing fractions were concentrated to 1 ml as described above; His6 (N); made in house; host or cells: Pichia pastoris X-33, vector pPICZα C (secreted)
T2 sequence (P27487 37-766 E205A): as the sequence (P27487 37-766 N710D) above, with E169A, D674N counted along it
Method: (§1) The reactions were performed in 100 mM HEPES buffer, pH 7.6 at 30°C in a total assay volume of 270 μl by using 96-well plates. […] Fluorescence was detected with a […]luor Plus (TECAN) at an excitation wavelength of 380 nm and an emission wavelength of 465 nm.

DP4 variant R125K [3] = molecular target: T3, DP4 variant R125K (Homo sapiens, UniProt P27487, R125K); assay: as above; conditions: substrate hydrolysis, 100 mM HEPES-buffer (pH 7.6), T = 30 °C
T3 construct: His(6)-37-766 hDP4 containing fractions were concentrated to 1 ml; made in house; host or cells: Pichia pastoris X-33 (vector pPICZα C, secreted)
T3 sequence (P27487 37-766 R125K): as the sequence (P27487 37-766 N710D) above, with R89K, D674N counted along it
Method: as §1

wild type DP4 [4] = molecular target: T4, wild type DP4 (Homo sapiens, UniProt P27487); assay: as above; conditions: substrate hydrolysis, 100 mM HEPES-buffer (pH 7.6), T = 30 °C
T4 construct: His(6)-37-766 hDP4 containing fractions were concentrated to 1 ml; made in house; host or cells: Pichia pastoris X-33 (vector pPICZα C, secreted)
T4 sequence (P27487 37-766): as the sequence (P27487 37-766 N710D) above, with D674N counted along it
Method: as §1

DP4 variant R125A [5] = molecular target: T5, DP4 variant R125A (Homo sapiens, UniProt P27487, R125A); assay: as above; conditions: substrate hydrolysis, 100 mM HEPES-buffer (pH 7.6), T = 30 °C
T5 construct: His(6)-37-766 hDP4 containing fractions were concentrated to 1 ml; made in house; host or cells: Pichia pastoris X-33 (vector pPICZα C, secreted)
T5 sequence (P27487 37-766 R125A): as the sequence (P27487 37-766 N710D) above, with R89A, D674N counted along it
Method: as §1

DP4 variant N710A [6] = molecular target: T6, DP4 variant N710A (Homo sapiens, UniProt P27487, N710A); assay: as above; conditions: for Km / kcat: N710A, substrate hydrolysis, 100 mM HEPES-buffer (pH 7.6), T = 30 °C
T6 construct: His(6)-37-766 hDP4 containing fractions were concentrated to 1 ml; made in house; host or cells: Pichia pastoris X-33 (vector pPICZα C, secreted)
T6 sequence (P27487 37-766 N710A): as the sequence (P27487 37-766 N710D) above, with D674A counted along it
Method: as §1

DP4 variant E206A [7] = molecular target: T7, DP4 variant E206A (Homo sapiens, UniProt P27487, E206A); assay: as above; conditions: substrate hydrolysis, 100 mM HEPES-buffer (pH 7.6), T = 30 °C
T7 construct: His(6)-37-766 hDP4 containing fractions were concentrated to 1 ml as described above; His6 (N); made in house; host or cells: Pichia pastoris X-33, vector pPICZα C (secreted)
T7 sequence (P27487 37-766 E206A): as the sequence (P27487 37-766 N710D) above, with E170A, D674N counted along it
Method: as §1

DP4 variant N710Q [8] = molecular target: T8, DP4 variant N710Q (Homo sapiens, UniProt P27487, N710Q); assay: as above
T8 construct: His(6)-37-766 hDP4 containing fractions were concentrated to 1 ml; made in house; host or cells: Pichia pastoris X-33 (vector pPICZα C, secreted)
T8 sequence (P27487 37-766 N710Q): as the sequence (P27487 37-766 N710D) above, with D674Q counted along it
Method: The reactions were performed in 100 mM HEPES buffer, pH 7.6 at 30°C in a total assay volume of 270 μl by using 96-well plates. […] Fluorescence was detected with a [sequence]luor Plus (TECAN) at an excitation wavelength of 380 nm and an emission wavelength of 465 nm.

DP4 variant E205A [9] = molecular target: T2, DP4 variant E205A; assay: IC50 determination with substrate Gly-Pro-AMC; conditions: 100 mM HEPES-buffer (pH 7.6), T = 30 °C, substrate Gly-Pro-AMC in the range of Km
Method: as §1

DP4 variant N710Q [10] = molecular target: T8, DP4 variant N710Q; assay: IC50 determination with substrate Gly-Pro-AMC; conditions: bounds given in mM, 100 mM HEPES-buffer (pH 7.6), T = 30 °C, substrate Gly-Pro-AMC in the range of Km
Method: as §1

DP4 variant R125K [11] = molecular target: T3, DP4 variant R125K; assay: IC50 determination with substrate Gly-Pro-AMC; conditions: 100 mM HEPES-buffer (pH 7.6), T = 30 °C, substrate Gly-Pro-AMC in the range of Km
Method: as §1

wild type DP4 [12] = molecular target: T4, wild type DP4; assay: IC50 determination with substrate Gly-Pro-AMC; conditions: 100 mM HEPES-buffer (pH 7.6), T = 30 °C, substrate Gly-Pro-AMC in the range of Km
Method: as §1

DP4 variant R125A [13] = molecular target: T5, DP4 variant R125A; assay: IC50 determination with substrate Gly-Pro-AMC; conditions: 100 mM HEPES-buffer (pH 7.6), T = 30 °C, substrate Gly-Pro-AMC in the range of Km
Method: as §1

DP4 variant N710D [14] = molecular target: T1, DP4 variant N710D; assay: IC50 determination with substrate Gly-Pro-AMC; conditions: 100 mM HEPES-buffer (pH 7.6), T = 30 °C, substrate Gly-Pro-AMC in the range of Km
Method: as §1

DP4 variant N710A [15] = molecular target: T6, DP4 variant N710A; assay: IC50 determination with substrate Gly-Pro-AMC; conditions: bounds given in mM, 100 mM HEPES-buffer (pH 7.6), T = 30 °C, substrate Gly-Pro-AMC in the range of Km
Method: as §1

DP4 variant E206A [16] = molecular target: T7, DP4 variant E206A; assay: IC50 determination with substrate Gly-Pro-AMC; conditions: bounds given in mM, 100 mM HEPES-buffer (pH 7.6), T = 30 °C, substrate Gly-Pro-AMC in the range of Km
Method: as §1

[17] = N710Q, substrate hydrolysis, 100 mM HEPES-buffer (pH 7.6), T = 30 °C

Structure (SMILES) | kcat (DP4 variant N710D [1]) | Km (DP4 variant E205A [2]) | kcat (DP4 variant E205A [2]) | Km (DP4 variant R125K [3]) | kcat (DP4 variant R125K [3]) | Km (wild type DP4 [4]) | kcat (wild type DP4 [4]) | Km (DP4 variant R125A [5]) | kcat (DP4 variant R125A [5]) | Km (DP4 variant N710A [6]) | kcat (DP4 variant N710A [6]) | kcat (DP4 variant E206A [7]) | kcat (DP4 variant N710Q [8]; [17]) | also measured
Cc1cc(=O)oc2cc(NC(=O)[C@H](C)NC(=O)[C@H](C)N)ccc12 [Ala-Ala-AMC] (H-Ala-Ala-{AMC}) | 0.05 ± 0.003 s⁻¹ | 4700 µM | 0.15 ± 0.015 s⁻¹ | 1500 µM | 2.6 ± 0.09 s⁻¹ | 550 µM | 5.7 ± 0.18 s⁻¹ | 710 µM | 2.3 ± 0.08 s⁻¹ | 410 µM | (9.4 ± 0.06) · 10^−3 s^−1 | No hydrolysis at concentrations < 10 mM | No hydrolysis at concentrations < 10 mM | Km (DP4 variant N710D [1]): 1800 µM; Km (DP4 variant E206A [7]): No hydrolysis at concentrations < 10 mM; Km (DP4 variant N710Q [8]; [17]): No hydrolysis at concentrations < 10 mM
Cc1cc(=O)oc2cc(NC(=O)[C@@H]3CCCN3C(=O)[C@H](C)N)ccc12 [Ala-Pro-AMC] (H-Ala-Pro-{AMC}) | 19 ± 0.6 s⁻¹ | 240 µM | 17 ± 0.2 s⁻¹ | 38 µM | 37 ± 0.5 s⁻¹ | 19 µM | 32 ± 0.9 s⁻¹ | 37 µM | 48 ± 1.0 s⁻¹ | 1700 µM | 0.74 ± 0.03 s⁻¹ | 0.8 ± 0.05 s⁻¹ | 0.23 ± 0.01 s⁻¹ | Change of Km-value in comparison to the wild type enzyme (decreased) (DP4 variant N710A [6]; N710A vs wild type): 100 fold; Drop of kcat-value in comparison to the wild type enzyme (DP4 variant N710A [6]; N710A vs wild type): ~30 factor; Km (DP4 variant E206A [7]; read-out: Km): 3400 µM; Change of Km-value in comparison to the wild type enzyme (decreased) (DP4 variant N710Q [8]; N710Q vs wild type): 100 fold; Drop of kcat-value in comparison to the wild type enzyme (DP4 variant N710Q [8]; N710Q vs wild type): ~30 factor
CC[C@H](C)[C@H](NC(=O)[C@@H]1CCCN1C(=O)[C@@H](N)C(C)(C)C)C(=O)O [t-Bu-Gly-Pro-Ile, t-Butyl-Gly-Pro-Ile] (H-[Tle]-Pro-Ile-OH) |  |  |  |  |  |  |  |  |  |  |  |  |  | IC50 (DP4 variant E205A [9]): 1700 µM; IC50 (DP4 variant N710Q [10]): > 10 mM; IC50 (DP4 variant R125K [11]): 200 µM; IC50 (wild type DP4 [12]): 3.6 µM; IC50 (DP4 variant R125A [13]): 400 µM; IC50 (DP4 variant N710D [14]): 600 µM; IC50 (DP4 variant N710A [15]): > 10 mM; IC50 (DP4 variant E206A [16]): > 10 mM
